{
  "source": "ChEMBL document CHEMBL3638784",
  "about": "“Fused bicyclic oxazolidinone CETP inhibitor” (2014)",
  "target": "T1, Cholesteryl ester transfer protein (Homo sapiens, UniProt P11597)",
  "T1 sequence (P11597 whole entry)": "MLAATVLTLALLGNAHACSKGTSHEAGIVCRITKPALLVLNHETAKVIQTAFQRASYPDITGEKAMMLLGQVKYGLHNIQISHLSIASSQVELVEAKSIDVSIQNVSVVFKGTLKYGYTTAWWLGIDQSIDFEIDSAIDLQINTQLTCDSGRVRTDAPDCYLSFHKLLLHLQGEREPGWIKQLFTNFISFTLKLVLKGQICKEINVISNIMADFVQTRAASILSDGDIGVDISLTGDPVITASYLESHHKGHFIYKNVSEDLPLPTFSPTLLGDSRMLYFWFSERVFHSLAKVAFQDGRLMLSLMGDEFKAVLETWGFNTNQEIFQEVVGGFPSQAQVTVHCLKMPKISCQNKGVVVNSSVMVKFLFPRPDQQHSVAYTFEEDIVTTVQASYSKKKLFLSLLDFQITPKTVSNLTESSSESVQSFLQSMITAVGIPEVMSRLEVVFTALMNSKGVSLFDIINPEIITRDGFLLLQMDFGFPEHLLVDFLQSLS",
  "test": "Scintillation Proximity Assay (SPA): First, low density lipoprotein (LDL) (Meridian) was biotinylated by incubating LDL with biotin for 1 hour on ice, after which it was dialyzed to remove free biotin. Then compounds at varying concentrations were incubated with 15 nM CETP (reagent production group, In Vitro Pharmacology, MRL Rahway) and 50 ug/ml of the biotinylated LDL in 50 mM HEPES, 150 mM NaCl, pH 7.4, for 1 hour at 37° C. The reaction was started by adding 3H-cholesterol ester high density lipoprotein (HDL) (American Radiochemicals Corp) at a concentration of ~0.6 nM. The reaction proceeded for 2 hours at 37° C., after which time it was quenched by the addition of 12% acetic acid. PVT streptavadin-coated scintillation proximity beads, which had been brought to room temperature, were then added at a concentration of 4 mg/ml. The assay was then mixed and counted after one half hour in a Microbeta plate reader.",
  "data": [
    {"smiles": "N#Cc1cccc(-c2ccc(C(F)(F)F)cc2[C@@H]2CC[C@H]3[C@@H](c4cc(C(F)(F)F)cc(C(F)(F)F)c4)OC(=O)N23)c1", "values": [
      {"measurement": "IC50", "value": 177, "unit": "nM"}
    ]}
  ]
}
